Measurements reported in PubChem BioAssay (NCI).
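Cells were grown in 96-well plates and exposed to each compound for 48 hours at five concentrations; endpoints were interpolated linearly between bracketing concentrations, or set to the highest concentration if not reached. TGI: total growth inhibition.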

How the values were obtained:
Test in all cases: NCI anticancer screen, dose series, 48 h
NCI-H522 lung = test system: NCI-H522 lung
LOX IMVI melanoma = test system: LOX IMVI melanoma
HL-60(TB) leukemia = test system: HL-60(TB) leukemia
OVCAR-8 ovarian = test system: OVCAR-8 ovarian
BT-549 breast = test system: BT-549 breast
A498 renal = test system: A498 renal
SW-620 colon = test system: SW-620 colon
MALME-3M melanoma = test system: MALME-3M melanoma
OVCAR-4 ovarian = test system: OVCAR-4 ovarian
HCT-15 colon = test system: HCT-15 colon
SNB-75 CNS = test system: SNB-75 CNS
UO-31 renal = test system: UO-31 renal
SF-295 CNS = test system: SF-295 CNS
NCI/ADR-RES ovarian = test system: NCI/ADR-RES ovarian
HCT-116 colon = test system: HCT-116 colon
SK-MEL-5 melanoma = test system: SK-MEL-5 melanoma
MOLT-4 leukemia = test system: MOLT-4 leukemia
ACHN renal = test system: ACHN renal
UACC-257 melanoma = test system: UACC-257 melanoma
U251 CNS = test system: U251 CNS
MCF7 breast = test system: MCF7 breast
NCI-H23 lung = test system: NCI-H23 lung
K-562 leukemia = test system: K-562 leukemia
RXF 393 renal = test system: RXF 393 renal
COLO 205 colon = test system: COLO 205 colon
MDA-MB-231 breast = test system: MDA-MB-231 breast
UACC-62 melanoma = test system: UACC-62 melanoma
SK-MEL-28 melanoma = test system: SK-MEL-28 melanoma
SN12C renal = test system: SN12C renal
MDA-N = test system: MDA-N
SK-OV-3 ovarian = test system: SK-OV-3 ovarian
T-47D breast = test system: T-47D breast
MDA-MB-435 = test system: MDA-MB-435
HOP-62 NSCLC = test system: HOP-62 NSCLC
HT29 colon = test system: HT29 colon
KM12 colon = test system: KM12 colon
HS 578T breast = test system: HS 578T breast
IGROV1 ovarian = test system: IGROV1 ovarian
EKVX NSCLC = test system: EKVX NSCLC
HOP-92 NSCLC = test system: HOP-92 NSCLC
SNB-19 CNS = test system: SNB-19 CNS
CCRF-CEM leukemia = test system: CCRF-CEM leukemia
NCI-H226 lung = test system: NCI-H226 lung
SF-539 CNS = test system: SF-539 CNS
M14 melanoma = test system: M14 melanoma
TK-10 renal = test system: TK-10 renal
SF-268 CNS = test system: SF-268 CNS
NCI-H460 lung = test system: NCI-H460 lung
OVCAR-5 ovarian = test system: OVCAR-5 ovarian
HCC-2998 colon = test system: HCC-2998 colon
SK-MEL-2 melanoma = test system: SK-MEL-2 melanoma
CAKI-1 renal = test system: CAKI-1 renal
DU-145 prostate = test system: DU-145 prostate
786-0 renal = test system: 786-0 renal
A549 NSCLC = test system: A549 NSCLC
PC-3 prostate = test system: PC-3 prostate
OVCAR-3 ovarian = test system: OVCAR-3 ovarian
RPMI-8226 leukemia = test system: RPMI-8226 leukemia

`FC(F)(F)c1ccc2nc(Sc3ccccn3)cnc2c1` was tested, and the TGI (NCI-H522 lung) was 43.7 µM, the TGI (LOX IMVI melanoma) was greater than 100 µM and the TGI (HL-60(TB) leukemia) was 31.7 µM. For the same compound, the TGI (OVCAR-8 ovarian) was greater than 100 µM, the TGI (BT-549 breast) was 68.1 µM and the TGI (A498 renal) was 54.1 µM. It also gave a TGI (SW-620 colon) greater than 100 µM, a TGI (MALME-3M melanoma) greater than 100 µM and a TGI (OVCAR-4 ovarian) greater than 100 µM. It also gave a TGI (HCT-15 colon) greater than 100 µM, a TGI (SNB-75 CNS) of 96.1 µM and a TGI (UO-31 renal) greater than 100 µM. It also gave a TGI (SF-295 CNS) greater than 100 µM, a TGI (NCI/ADR-RES ovarian) greater than 100 µM and a TGI (HCT-116 colon) greater than 100 µM. For the same compound, the TGI (SK-MEL-5 melanoma) was 66.2 µM, the TGI (MOLT-4 leukemia) was greater than 100 µM and the TGI (ACHN renal) was 52.9 µM. The TGI (UACC-257 melanoma) was greater than 100 µM, the TGI (U251 CNS) was 42.3 µM and the TGI (MCF7 breast) was greater than 100 µM. It also gave a TGI (NCI-H23 lung) of 78.8 µM, a TGI (K-562 leukemia) greater than 100 µM and a TGI (RXF 393 renal) of 55.5 µM. The TGI (COLO 205 colon) was greater than 100 µM, the TGI (MDA-MB-231 breast) was greater than 100 µM and the TGI (UACC-62 melanoma) was 88.3 µM. The TGI (SK-MEL-28 melanoma) was greater than 100 µM, the TGI (SN12C renal) was greater than 100 µM and the TGI (MDA-N) was greater than 100 µM. It also gave a TGI (SK-OV-3 ovarian) greater than 100 µM, a TGI (T-47D breast) greater than 100 µM and a TGI (MDA-MB-435) greater than 100 µM. The TGI (HOP-62 NSCLC) was greater than 100 µM, the TGI (HT29 colon) was greater than 100 µM and the TGI (KM12 colon) was greater than 100 µM. For the same compound, the TGI (HS 578T breast) was greater than 100 µM, the TGI (IGROV1 ovarian) was greater than 100 µM and the TGI (EKVX NSCLC) was greater than 100 µM. It also gave a TGI (HOP-92 NSCLC) greater than 100 µM, a TGI (SNB-19 CNS) of 86.8 µM and a TGI (CCRF-CEM leukemia) greater than 100 µM. For the same compound, the TGI (NCI-H226 lung) was 60.2 µM, the TGI (SF-539 CNS) was 35.9 µM and the TGI (M14 melanoma) was greater than 100 µM. It also gave a TGI (TK-10 renal) greater than 100 µM, a TGI (SF-268 CNS) greater than 100 µM and a TGI (NCI-H460 lung) greater than 100 µM. For the same compound, the TGI (OVCAR-5 ovarian) was greater than 100 µM, the TGI (HCC-2998 colon) was 38.3 µM and the TGI (SK-MEL-2 melanoma) was 31.1 µM. It also gave a TGI (CAKI-1 renal) greater than 100 µM, a TGI (DU-145 prostate) greater than 100 µM and a TGI (786-0 renal) of 62.1 µM. It also gave a TGI (A549 NSCLC) greater than 100 µM.

In the case of `CCN(CC)Cc1sc2nc3ccccc3n2c1-c1ccc(OC)cc1`, the TGI (NCI-H522 lung) is reported as greater than 100 µM, the TGI (LOX IMVI melanoma) is reported as greater than 100 µM and the TGI (HL-60(TB) leukemia) is reported as greater than 100 µM. For the same compound, the TGI (OVCAR-8 ovarian) was greater than 100 µM, the TGI (BT-549 breast) was greater than 100 µM and the TGI (A498 renal) was 71.6 µM. The TGI (SW-620 colon) was greater than 100 µM, the TGI (MALME-3M melanoma) was greater than 100 µM and the TGI (OVCAR-4 ovarian) was greater than 100 µM. The TGI (HCT-15 colon) was greater than 100 µM, the TGI (SNB-75 CNS) was greater than 100 µM and the TGI (UO-31 renal) was greater than 100 µM. The TGI (PC-3 prostate) was greater than 100 µM, the TGI (SF-295 CNS) was greater than 100 µM and the TGI (NCI/ADR-RES ovarian) was 90.8 µM. For the same compound, the TGI (HCT-116 colon) was greater than 100 µM, the TGI (OVCAR-3 ovarian) was greater than 100 µM and the TGI (MOLT-4 leukemia) was greater than 100 µM. It also gave a TGI (ACHN renal) greater than 100 µM, a TGI (UACC-257 melanoma) greater than 100 µM and a TGI (U251 CNS) greater than 100 µM. For the same compound, the TGI (MCF7 breast) was greater than 100 µM, the TGI (RPMI-8226 leukemia) was 33.1 µM and the TGI (NCI-H23 lung) was greater than 100 µM. The TGI (K-562 leukemia) was 22.7 µM, the TGI (RXF 393 renal) was 97 µM and the TGI (COLO 205 colon) was 77.3 µM. For the same compound, the TGI (MDA-MB-231 breast) was greater than 100 µM, the TGI (UACC-62 melanoma) was greater than 100 µM and the TGI (SK-MEL-28 melanoma) was greater than 100 µM. It also gave a TGI (MDA-N) of 7.02 µM, a TGI (SK-OV-3 ovarian) greater than 100 µM and a TGI (MDA-MB-435) of 12.9 µM. For the same compound, the TGI (HOP-62 NSCLC) was greater than 100 µM, the TGI (HT29 colon) was 40.7 µM and the TGI (KM12 colon) was greater than 100 µM. For the same compound, the TGI (HS 578T breast) was greater than 100 µM, the TGI (IGROV1 ovarian) was greater than 100 µM and the TGI (EKVX NSCLC) was 75.1 µM. For the same compound, the TGI (HOP-92 NSCLC) was greater than 100 µM, the TGI (SNB-19 CNS) was greater than 100 µM and the TGI (CCRF-CEM leukemia) was 67.6 µM. For the same compound, the TGI (NCI-H226 lung) was 71.4 µM, the TGI (M14 melanoma) was greater than 100 µM and the TGI (TK-10 renal) was greater than 100 µM. The TGI (SF-268 CNS) was greater than 100 µM, the TGI (OVCAR-5 ovarian) was greater than 100 µM and the TGI (HCC-2998 colon) was greater than 100 µM. It also gave a TGI (SK-MEL-2 melanoma) greater than 100 µM, a TGI (CAKI-1 renal) greater than 100 µM and a TGI (DU-145 prostate) greater than 100 µM. The TGI (786-0 renal) was greater than 100 µM and the TGI (A549 NSCLC) was greater than 100 µM.
